Results on two compounds are retold here after patent US8853273B2, “Medicinal agent for prevention and/or treatment of hepatocellular carcinoma” (Kowa Co., Ltd., priority 2010, dated 2014).

The subject of series [1] is liver cancer cells. As to conditions: cited from earlier work.
In series [2] the test system is recurrence of hepatocellular carcinoma. Particulars: clinical study, cited from earlier work.
Series [3] has the same test system. Briefly: Clinical test of recurrence of hepatocellular carcinoma after radical treatment in HCV-positive subjects (dynamic CT every 12 weeks, log-rank test). It counts as in vivo, human. Particulars: for 50% Recurrence free interval / 75% Recurrence free interval: peroral, 96 weeks, in combination with branched-chain amino acid preparation. As to the method: Peretinoin produced through a known method was used as an acyclic retinoid. A commercial preparation containing isoleucine, leucine, and valine in combination was used as a branched-chain amino acid.
Forty-six subjects (age: 49 to 80) were tested. […] As a preparation containing a branched-chain amino acid, Aminoleban (registered trademark) EN combination powder or Livact (registered trademark) combination granules were administered in a specific amount during the test period. The daily dose of Aminoleban was 150 g (the daily dose including L-isoleucine (5.7675 g), L-leucine (6.111 g), and L-valine (4.806 g)), and that of Livact was 12.45 g (the daily dose including L-isoleucine (2.856 g), L-leucine (5.712 g), and L-valine (3.432 g)). As an acyclic retinoid, peretionin, was administered to the subjects in combination with the branched-chain amino acid. The subjects were divided into the following groups:
1: peretinoin 600 mg (daily dose, the same applies hereinafter) combination group: 18 subjects (male: 11, female: 7),
2: peretinoin 300 mg combination group: 15 subjects (male: 9, female: 6), and
3: branched-chain amino acid sole administration group: 13 subjects (male: 8, female: 5).
The daily dose of peretinoin was divided into two portions. On each day during 96 weeks after start of the test, peretinoin was perorally administered after meal.
Radical curing and recurrence of hepatocellular carcinoma were confirmed through dynamic CT measured every 12 weeks after the start of the test. The combinatory effect on cumulative recurrence free rate was evaluated through the log-rank test.

The mark [4] stands for this setting: peretinoin 300 mg daily, 15 HCV-positive subjects.
Setting [5] is: peretinoin 600 mg daily, 18 HCV-positive subjects.

On to `CC(C)=CCC/C(C)=C/CC/C(C)=C/CC/C(C)=C/C(=O)O` [geranylgeranoic acid], for which the “apoptosis of liver cancer cells” value in series [1] was “induce apoptosis”.
In the case of `CC(C)=CCC/C(C)=C/CC/C(C)=C/C=C/C(C)=C/C(=O)O` [peretinoin, (2E,4E,6E,10E)-3,7,11,15-tetramethylhexadeca-2,4,6,10,14-pentaenoic acid], the “liver disorders / adverse side effects” value in series [2] is given as “substantially no liver disorders”. Moreover, in series [2] (long-term administration for one year), the “recurrence of hepatocellular carcinoma after radical treatment” value was “significantly inhibited”. Moreover, the “50% Recurrence free interval” value in series [3] (setting [4]) and in series [3] (setting [5]) was over 730 days throughout. Further, the “75% Recurrence free interval” value in series [3] (setting [4]) was found to be 415 days; in series [3] (setting [5]), 705 days. Besides, the “extension of 75% recurrence free interval compared with the sole branched-chain amino acid administration group” value is recorded as 227 days in series [3] (peretinoin 300 mg in combination with branched-chain amino acid) and 517 days in series [3] (peretinoin 600 mg in combination with branched-chain amino acid). In addition, in series [3] (peretinoin 600 mg and 300 mg combination groups with branched-chain amino acid), the “cumulative recurrence free rate (FIG. 1)” value is “remarkable improvement”. Besides, in series [3] (peretinoin 600 mg combination group, Log-rank test), the “cumulative recurrence free rate compared with the sole branched-chain amino acid administration group” value was “significantly improved”. In addition, the “extension of 50% recurrence free interval compared with the sole branched-chain amino acid administration group” value in series [3] (peretinoin and branched-chain amino acid combination groups (600 mg and 300 mg)) is recorded as “more than double”. Also, the “hepatocellular carcinoma recurrence rate” value in series [3] (peretinoin in combination with branched-chain amino acid) is “reduce”.
